According to patent EP0470323A2, “New salts of the nicotinic acid with aminobenzylic compounds and their pharmaceutical use” (BROMLEY LIMITED, priority 1990, dated 1992):

What was measured:
[1] = system: aggregation of the platelets caused by the collagene; test: Anti-aggregating ex vivo activity against collagen in the rat
Protocol: Six groups of 15 male rats of 200 - 250 g have been used.
The blood taken from the three rats of each group has been mixed and centrifuged during 6 minutes at 1400 rpm, at room temperature. After having taken the plasma full of platelets (PRP) the thereunder floating material has been centrifuged again (4000 rpm during 10 minutes) in order to have the plasma with few platelets (PPP) separated from the balance. The PRP has been diluted with a part of PPP in order to bring the number of platelets to 350 ± 50 x 10³/mm³. The aggregation has been evaluated in accordance with the method of Minsker D.H. and coll. (J. Pharmacol.Exp.Ther. 210 37 1979) by using an ELVI 840 two-channels aggregometer and an Omniscribe recorder B.500. A quantity of 0,25 ml PRP has been used, transferred into the aggregometer for two minutes at 37°C and stirred at 1000 rpm. The light intensity was arranged in such a way, to obtain 0% transmittance with the PRP and 100% with the PPP. After 2′ incubation, by means of microsyringe the collagene was added to the PRP in a volume quantity of 5 mcl with the final concentration of 4 mcg/ml.
From the aggregation trace of the recorder the following data have been evaluated: • a) latent time of the aggregation (seconds between the introductions of collagene and the starting of the aggregation) • b) transmittance increase percentage (maximum aggregation). The same proceeding was repeated for all animals, always by mixing the blood of three rats belonging to the same group and by obtaining in this manner five aggregation curves per group.

[2] = system: Central artery of a rabbit's ear; test: In vitro antispastic action, adrenalin-induced spasm of the perfused isolated artery; conditions: spasm induced by Adrenalin, n=4
Protocol: An "in vitro" method has been used, according to which the withdrawal of the central artery of a rabbit's ear with the relevant nervous connections and the equipment of an appropriate seat for secluded organs was designed (Fleckenstein A., British Journal of Pharmacology 7, 533, 1952).
On the artery they did install a three-ways tube, connected with a peristaltic pump and with a mercury manometer to record the perfusion pressure. The artery was perfused with a rebs liquid at the speed of 2,5 ml/minute. The contractions were induced by injecting into the vessel 0,1 ml adrenalin at the concentration of 1 mcg/ml. The compound according to the example 1 has been added to the bath at concentrations of 0,5 - 1 - 2 uM, five minutes before the adrenalin (four preparations per concentration). As comparison drugs, chlorhydra ted Buflomedil and Papaverin have been used. The activity of the material under investigation has been appreciated in terms of percentages referring to the concentration induced by the Adrenalin (and expressed with DE₅₀) and the relevant forbidding.

red cells in the rat [3] = test: Red cell adhesivity / filtration, Teitel method; format: in vivo
Excerpt: (§1) steresis (Teiltel P.: Nouv. Rev. Franç. Hématol. 7, 195, 1967). Any alteration, almost undoubtely at the level of the red cell's membrane, cause some damaging variations of the red cell's elasticity thus making more difficult the passing through the capillary vessels having more reduced diameter, and therefore increasing the flow resistance in the peripheral vessels systems. In order to determine the effect caused by the compound according to the Example 1, on these features of the red cell, the method described by Schmidt, Schonbein and colleagues (Blut 26, 369, 1973) has been used.
(§2) In the circulatory flow, the above mentioned capillary vessels being excluded, the blood cells do normally circulate being attached between each other because of their adhesiveness. In order to study this adhesion force, the above mentioned Teitel method has been used. Male rats of 150 g body weight approximately have been employed, and they have been treated for three consecutive days with 0,5 mM/kg/os of the compound according to the Example 1, or otherwise Buflomedil, or even Pentosiphillin used as comparison substance. After the last treatment the animals, without eating from 18 hours, have been killed in a light ethereal anaesthesy and the blood was collected over an 0,2 molar EDTA (9 and 1 volumes respectively). The red cells filtering possibility, measured with the Teitel method, wherein the quantity of red cells passing, in high haematocritical conditions, through a paper filter with holes of 20-40 µm in a previously determined time, has been ascertained as follows: the blood was centrifuged for ten minutes at 2000 rpm in order to obtain the massing of the red cells, two ml of the blood collected as above were put into an upside down turned cone made with filtering paper, being previously wetted with a physiological solution. The volume passing through the filter in 2 - 4 - 8 and 16 minutes is then measured. The average filtration time T 1/2 is reckoned on semi-logarithmic paper by putting on the abscissae the logarithm of the time, and on the ordinates the percentage of blood filtered. In order to follow the Schmidt Schönbein method, the here after described proceeding has been performed: 0,2 ml of a suspension of red cells at 2% obtained by diluting the blood with the autological plasma, then it was placed into an appropriate device permitting to filter this blood through a filter (millipores) of 5 µm mashes at a filtration pressure of 50 mm water. With a chronometer one determines the time required for the passage of the whole sample through the filter.
At time same time, one measures, in the same conditions, the same parameter for a plasma sample. One calculates then the relative filtration time by dividing the time required to filter the diluted blood sample by the time being necessary to filter the plasma sample. For each group the average and the standard error of the individual data obtained was reckoned. The statistical evaluation was obtained by means of the Dunnett test.

red cells in the rat [4] = test: Red cell deformability / filtration, Schmidt-Schönbein method; format: in vivo; conditions: dose 3 x 0,5 mM/kg/os
Excerpt: as §1
as §2, with “The average filtration time T 1/2 is reckoned on semi-logarithmic paper by putting on the abscissae the logarithm of the time, and on the ordinates the percentage of blood filtered. In order to follow the Schmidt Schönbein method, the here after described proceeding has been performed: 0,2 ml of a suspension of red cells at 2% obtained by diluting the blood with the autological plasma, then it was placed into an appropriate device permitting to filter this blood through a filter (millipores) of 5 µm mashes at a filtration pressure of 50 mm water. With a chronometer one determines the time required for the passage of the whole sample through the filter.” left out

[5] = system: skin temperature of the mouse's paw; test: Peripheral vessel-dilating activity in the mouse (skin temperature of hind paws); format: in vivo; conditions: listed as buflomedil HCl; for Temperature (°C) of the hind paws (n=10): intravenous, dose 0,030 mM/kg/iv; for Temperature (°C) of the hind paws: oral, dose 0,500 mM/kg/os
Protocol: The method of Richter W. (Acta Pharm. Toxicol. 21, 91; 1974) was used; it consists in determining, at fixed time intervals after the treatment, the skin temperature of the mouse's paw, by keeping the animals in rooms at a constant temperature of 21°C.
Some groups of ten male mouses each have been used; the weight of each animal was 30 g approximately.
The compound according to the Example 1 has been tested "per os" at three basic levels of the doses (0,125 - 0,25 - 0,5 mM/kg) and by intravenous injection at two dose levels (0,015 and 0,03 mM/kg), in comparison with one sole dose of Papaverin and chlorhydrated Buflomedil (0,5 mM/kg "per os" and 0,03m M/kg intravenous). The observation of the skin temperature at the mouse's paw was made before the treatment, 30, 60 and 120 minutes after the "per os" treatment, […] (A-Hl Ellab) connected with an Ellab electric recorder. Of each animal the temperature of both hind paws has been measured, and the values obtained have been averaged .

[6] = rat, 1,00 mM/kg os for 4 days, PRP 2 hours after last treatment, collagene 4 mcg/ml, listed as Chlorhydrated Buflo-medil
[7] = rat, 1,00 mM/kg os for 4 days, listed as Chlorhydrated Buflo-medil
[8] = 0 minutes (before the treatment)

Structure (SMILES): COc1cc(OC)c(C(=O)CCCN2CCCC2)c(OC)c1 [Buflomedil, reference compound]
- effect relative to that caused by the same dose of the compound according to the example 1 ([1]; rat, 1 mM/kg os, platelet aggregation by collagene): approximately 50%
- Latency time (sec.) [1, 6]: 51,9 ± 3,7 sec.
- Transmittance percentage (maximum aggregation) [1, 6]: 54,2 ± 4,5%
- Latency time, % variation vs controls [1, 7]: +38,4%
- Transmittance percentage, % variation vs controls [1, 7]: -31%
- EC50 ([2]; Oryctolagus cuniculus, read-out: DE50 (the source's name)): 670 nM
- % inhibi-tions of the con-tractions ([2]; concentration 0,5 μ M): 41%
- % inhibi-tions of the con-tractions ([2]; concentration 1,0 μ M): 60%
- % inhibi-tions of the con-tractions ([2]; concentration 2,0 μ M): 87%
- Teitel method Δ % vs contr. (red cells in the rat [3]; dose 3 x 0,5 mM/kg/os): 20,3%
- Teitel method T1/2 min. M ± E.S. (red cells in the rat [3]; dose 3 x 0,5 mM/kg/os (three consecutive days)): 2,90 ± 0,28 min.
- Schmidt-Schönbein method Δ % vs contr. (red cells in the rat [4]): 24,2%
- Temperature (°C) of the hind paws (n=10) [5, 8]: 24,3 ± 0,32 °C
- Temperature (°C) of the hind paws (n=10) ([5]; 30 minutes from the treatment): 26,6 ± 0,20 °C
- Temperature (°C) of the hind paws (n=10) ([5]; 60 minutes from the treatment): 26,3 ± 0,24 °C
- Temperature (°C) of the hind paws (n=10) ([5]; 120 minutes from the treatment): 26,0 ± 0,18 °C
- Temperature (°C) of the hind paws [5, 8]: 24,2 ± 0,30 °C
- Temperature (°C) of the hind paws ([5]; 30 minutes from the treatment): 25,8 ± 0,25 °C
- Temperature (°C) of the hind paws ([5]; 60 minutes from the treatment): 26,5 ± 0,50 °C
- Temperature (°C) of the hind paws ([5]; 120 minutes from the treatment): 26,1 ± 0,42 °C
